Measurements as given in patent US20220040129A1, “TREATMENT OF HYPERAMMONEMIA IN PATIENTS WITH RENAL INSUFFICIENCY” (RECORDATI S.p.A., priority 2019, published 2022).

Legend:
Test in all cases: In vitro transporter inhibition
Type in all cases: in vitro ADME
human BCRP = molecular target: T1, human BCRP (Homo sapiens, UniProt Q9UNQ0)
T1 sequence (Q9UNQ0 1-655): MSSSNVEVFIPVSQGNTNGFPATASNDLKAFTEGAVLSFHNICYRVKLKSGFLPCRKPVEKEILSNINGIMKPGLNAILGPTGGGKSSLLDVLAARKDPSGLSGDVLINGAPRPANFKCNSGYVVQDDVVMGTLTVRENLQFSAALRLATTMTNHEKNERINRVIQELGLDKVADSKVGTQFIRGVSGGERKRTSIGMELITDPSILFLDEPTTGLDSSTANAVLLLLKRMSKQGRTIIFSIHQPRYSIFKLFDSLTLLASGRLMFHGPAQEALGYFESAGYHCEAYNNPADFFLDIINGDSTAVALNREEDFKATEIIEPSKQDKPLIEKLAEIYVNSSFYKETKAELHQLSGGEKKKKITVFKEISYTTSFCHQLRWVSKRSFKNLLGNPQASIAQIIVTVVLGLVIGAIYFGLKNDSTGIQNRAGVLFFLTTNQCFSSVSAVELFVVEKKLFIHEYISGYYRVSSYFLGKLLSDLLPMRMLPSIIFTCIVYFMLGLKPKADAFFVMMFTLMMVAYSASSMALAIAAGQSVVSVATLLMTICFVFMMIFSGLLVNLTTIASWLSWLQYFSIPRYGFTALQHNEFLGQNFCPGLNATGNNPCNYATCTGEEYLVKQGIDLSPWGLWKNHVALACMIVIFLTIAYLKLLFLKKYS
Experimental: (§1) In vitro drug interaction studies were performed with human transporters. […] Potential interactions with inhibitors of the OAT1 transporter were considered clinically irrelevant.

human OATP1B3 = molecular target: T2, human OATP1B3 (Homo sapiens, UniProt Q9NPD5)
T2 sequence (Q9NPD5 1-702): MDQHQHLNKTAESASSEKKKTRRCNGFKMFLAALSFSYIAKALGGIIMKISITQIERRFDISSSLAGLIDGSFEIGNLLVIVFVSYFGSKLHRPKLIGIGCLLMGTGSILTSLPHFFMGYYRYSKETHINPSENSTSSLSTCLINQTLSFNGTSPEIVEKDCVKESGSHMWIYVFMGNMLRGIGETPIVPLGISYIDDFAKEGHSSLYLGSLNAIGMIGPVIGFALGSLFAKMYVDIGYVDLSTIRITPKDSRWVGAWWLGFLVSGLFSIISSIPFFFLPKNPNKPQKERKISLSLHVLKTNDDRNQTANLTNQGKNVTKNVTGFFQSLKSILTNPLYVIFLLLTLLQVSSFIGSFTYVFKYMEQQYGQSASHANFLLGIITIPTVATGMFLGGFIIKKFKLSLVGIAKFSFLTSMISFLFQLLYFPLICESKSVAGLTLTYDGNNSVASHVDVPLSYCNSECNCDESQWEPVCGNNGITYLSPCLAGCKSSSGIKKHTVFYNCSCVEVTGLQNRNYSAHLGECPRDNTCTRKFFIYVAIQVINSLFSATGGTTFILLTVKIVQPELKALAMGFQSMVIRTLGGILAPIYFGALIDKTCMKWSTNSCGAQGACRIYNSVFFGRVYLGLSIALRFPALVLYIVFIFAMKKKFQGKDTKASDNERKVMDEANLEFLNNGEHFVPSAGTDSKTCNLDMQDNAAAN
Experimental: as §1

human BSEP = human BSEP (Homo sapiens, UniProt O95342)
human BSEP, sequence (O95342 whole entry): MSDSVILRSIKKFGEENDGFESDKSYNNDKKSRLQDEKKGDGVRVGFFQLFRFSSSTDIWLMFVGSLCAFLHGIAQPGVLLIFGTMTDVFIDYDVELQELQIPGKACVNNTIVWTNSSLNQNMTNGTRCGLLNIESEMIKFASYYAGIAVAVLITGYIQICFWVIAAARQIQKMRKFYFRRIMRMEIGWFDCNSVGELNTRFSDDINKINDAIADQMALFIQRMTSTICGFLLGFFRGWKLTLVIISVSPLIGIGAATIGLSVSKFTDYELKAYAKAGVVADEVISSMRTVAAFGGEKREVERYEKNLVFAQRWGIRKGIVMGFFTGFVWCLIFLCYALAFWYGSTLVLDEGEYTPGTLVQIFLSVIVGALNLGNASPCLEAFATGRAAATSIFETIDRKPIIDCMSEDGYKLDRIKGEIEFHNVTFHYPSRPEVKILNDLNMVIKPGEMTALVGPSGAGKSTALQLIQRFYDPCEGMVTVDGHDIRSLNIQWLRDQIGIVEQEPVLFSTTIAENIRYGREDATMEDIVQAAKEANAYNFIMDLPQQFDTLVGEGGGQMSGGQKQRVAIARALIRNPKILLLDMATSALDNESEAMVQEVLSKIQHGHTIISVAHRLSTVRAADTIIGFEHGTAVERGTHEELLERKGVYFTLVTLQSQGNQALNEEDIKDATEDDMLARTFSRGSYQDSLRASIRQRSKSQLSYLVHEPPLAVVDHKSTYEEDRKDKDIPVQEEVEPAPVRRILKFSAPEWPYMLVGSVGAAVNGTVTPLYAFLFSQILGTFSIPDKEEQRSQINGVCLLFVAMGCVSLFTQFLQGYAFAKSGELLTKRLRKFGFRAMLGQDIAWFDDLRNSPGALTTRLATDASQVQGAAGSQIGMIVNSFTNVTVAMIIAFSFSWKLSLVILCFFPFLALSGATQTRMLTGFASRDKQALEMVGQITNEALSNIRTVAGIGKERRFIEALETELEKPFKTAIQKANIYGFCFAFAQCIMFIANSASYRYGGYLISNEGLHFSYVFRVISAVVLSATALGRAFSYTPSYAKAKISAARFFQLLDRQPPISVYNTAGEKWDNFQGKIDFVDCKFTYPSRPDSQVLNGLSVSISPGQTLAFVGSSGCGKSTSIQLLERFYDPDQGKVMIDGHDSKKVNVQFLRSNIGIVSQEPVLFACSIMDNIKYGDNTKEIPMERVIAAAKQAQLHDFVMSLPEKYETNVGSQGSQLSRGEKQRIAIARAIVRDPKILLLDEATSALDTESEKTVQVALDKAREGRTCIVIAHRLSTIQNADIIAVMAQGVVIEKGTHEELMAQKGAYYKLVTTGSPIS
Experimental: as §1

human MATE2-K = human MATE2-K (Homo sapiens, UniProt Q86VL8)
human MATE2-K, sequence (Q86VL8 1-566 isoform Q86VL8-3): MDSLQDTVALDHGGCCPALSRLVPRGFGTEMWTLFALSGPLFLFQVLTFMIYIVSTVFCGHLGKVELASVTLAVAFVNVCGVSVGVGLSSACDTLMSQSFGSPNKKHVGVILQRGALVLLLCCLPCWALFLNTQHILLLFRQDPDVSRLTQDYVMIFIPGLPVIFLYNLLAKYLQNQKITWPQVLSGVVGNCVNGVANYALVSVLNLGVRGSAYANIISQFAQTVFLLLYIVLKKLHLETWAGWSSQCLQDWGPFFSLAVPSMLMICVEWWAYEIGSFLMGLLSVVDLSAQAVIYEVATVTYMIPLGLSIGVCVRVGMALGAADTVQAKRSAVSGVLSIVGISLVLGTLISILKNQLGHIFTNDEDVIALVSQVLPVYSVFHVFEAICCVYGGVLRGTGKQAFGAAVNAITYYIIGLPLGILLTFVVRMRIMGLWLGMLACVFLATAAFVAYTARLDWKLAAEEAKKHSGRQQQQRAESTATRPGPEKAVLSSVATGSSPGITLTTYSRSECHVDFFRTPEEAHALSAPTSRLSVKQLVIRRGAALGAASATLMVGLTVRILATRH
Experimental: as §1

human MATE1 = molecular target: T3, human MATE1 (Homo sapiens, UniProt Q96FL8)
T3 sequence (Q96FL8 1-570): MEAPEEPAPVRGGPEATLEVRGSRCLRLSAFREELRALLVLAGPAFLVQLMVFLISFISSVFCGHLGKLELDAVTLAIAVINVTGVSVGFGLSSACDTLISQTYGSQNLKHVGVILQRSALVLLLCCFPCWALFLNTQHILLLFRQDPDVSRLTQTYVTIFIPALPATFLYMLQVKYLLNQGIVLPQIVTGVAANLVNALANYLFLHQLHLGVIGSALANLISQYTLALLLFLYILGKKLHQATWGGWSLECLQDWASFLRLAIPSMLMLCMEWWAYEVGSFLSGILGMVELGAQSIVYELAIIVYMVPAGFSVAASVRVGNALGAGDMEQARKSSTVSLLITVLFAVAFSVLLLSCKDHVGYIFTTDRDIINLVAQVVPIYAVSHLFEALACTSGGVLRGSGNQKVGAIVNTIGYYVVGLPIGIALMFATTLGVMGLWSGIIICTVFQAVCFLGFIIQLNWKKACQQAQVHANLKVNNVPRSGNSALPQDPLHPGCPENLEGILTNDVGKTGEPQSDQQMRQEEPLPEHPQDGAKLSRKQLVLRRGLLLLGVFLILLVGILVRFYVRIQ
Experimental: as §1

human OCT1 = molecular target: T4, human OCT1 (Homo sapiens, UniProt O15245)
T4 sequence (O15245 1-554): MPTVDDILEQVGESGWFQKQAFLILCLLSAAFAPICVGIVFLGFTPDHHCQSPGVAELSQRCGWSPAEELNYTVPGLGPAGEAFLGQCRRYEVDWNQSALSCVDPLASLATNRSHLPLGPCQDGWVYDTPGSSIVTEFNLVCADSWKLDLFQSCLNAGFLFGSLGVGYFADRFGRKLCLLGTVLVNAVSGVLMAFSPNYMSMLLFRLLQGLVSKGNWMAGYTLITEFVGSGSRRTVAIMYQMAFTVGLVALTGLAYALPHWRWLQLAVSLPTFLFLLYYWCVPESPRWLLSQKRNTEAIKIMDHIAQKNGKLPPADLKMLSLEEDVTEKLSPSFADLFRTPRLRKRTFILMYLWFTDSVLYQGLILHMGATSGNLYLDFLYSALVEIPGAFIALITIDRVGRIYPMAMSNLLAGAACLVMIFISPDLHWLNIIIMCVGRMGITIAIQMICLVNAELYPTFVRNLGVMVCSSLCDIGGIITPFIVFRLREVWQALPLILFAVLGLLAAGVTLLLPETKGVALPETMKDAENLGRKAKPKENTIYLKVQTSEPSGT
Experimental: as §1

NC(=O)N[C@@H](CCC(=O)O)C(=O)O [carglumic acid, N-carbamoyl-L-glutamic acid]
not an inhibitor: Inhibition of human BCRP efflux transporter (human BCRP) | Inhibition of human OATP1B3 uptake transporter (human OATP1B3) | Inhibition of human BSEP efflux transporter (human BSEP) | Inhibition of human MATE2-K uptake transporter (human MATE2-K) | Inhibition of human MATE1 uptake transporter (human MATE1) | Inhibition of human OCT1 uptake transporter (human OCT1)
